The target in assay [1] is T1, human adenosine A1 receptor (Homo sapiens, UniProt P30542).
T1 construct: host or cells: CHO cells (membranes)
T1 sequence (P30542 1-326): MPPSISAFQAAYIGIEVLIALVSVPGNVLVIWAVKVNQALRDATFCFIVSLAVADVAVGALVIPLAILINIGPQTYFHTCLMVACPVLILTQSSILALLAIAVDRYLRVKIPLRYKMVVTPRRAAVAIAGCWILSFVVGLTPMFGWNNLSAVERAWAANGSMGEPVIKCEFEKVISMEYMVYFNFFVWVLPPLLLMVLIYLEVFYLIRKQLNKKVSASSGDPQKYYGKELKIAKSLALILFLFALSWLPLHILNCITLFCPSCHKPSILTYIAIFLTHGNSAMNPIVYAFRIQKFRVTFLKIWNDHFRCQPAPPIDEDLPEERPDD
As to the kind of experiment: Adenosine A1 receptor binding test (3H-DPCPX binding). To be noted: compound at 100 nmol/L; Table 2, measured by Ricerca Biosciences, LLC; read-out: Inhibitory rate for human adenosine A1 receptor binding (3H-DPCPX binding). The text has this:
Specifically, for example, human A1 receptor-expressing CHO cell membranes are used, and, as the labeled compound, for example, tritium-labeled DPCPX (1,3-dipropyl-8-cyclopentylxanthine) is used. The amount of non-specific binding can be determined by measuring the ^3H-DPCPX bound radioactivity in the presence of, for example, 100 μmol/L of R(−)-PIA((−)-N^6-2-phenylisopropyl adenosine).

For assay [2], the target named is T2, human adenosine A2A receptor (Homo sapiens, UniProt P29274).
T2 construct: host or cells: HEK-293 cells (membranes)
The assay can be described thus: Adenosine A2A receptor binding test (3H-CGS21680 binding). As to conditions: compound at 100 nmol/L; Table 2, measured by Ricerca Biosciences, LLC; read-out: Inhibitory rate for human adenosine A2A receptor binding (3H-CGS21680 binding). The text has this:
Specifically, for example, human recombinant receptors are expressed in HEK-293 cells.
The inhibitory rate can be calculated by the following equation.

Results on 23 compounds are retold here after US10407440B2, “Therapeutic agent for motor disorders” (KYOWA HAKKO KIRIN CO., LTD., priority 2009, dated 2019).

T2 sequence (P29274 whole entry): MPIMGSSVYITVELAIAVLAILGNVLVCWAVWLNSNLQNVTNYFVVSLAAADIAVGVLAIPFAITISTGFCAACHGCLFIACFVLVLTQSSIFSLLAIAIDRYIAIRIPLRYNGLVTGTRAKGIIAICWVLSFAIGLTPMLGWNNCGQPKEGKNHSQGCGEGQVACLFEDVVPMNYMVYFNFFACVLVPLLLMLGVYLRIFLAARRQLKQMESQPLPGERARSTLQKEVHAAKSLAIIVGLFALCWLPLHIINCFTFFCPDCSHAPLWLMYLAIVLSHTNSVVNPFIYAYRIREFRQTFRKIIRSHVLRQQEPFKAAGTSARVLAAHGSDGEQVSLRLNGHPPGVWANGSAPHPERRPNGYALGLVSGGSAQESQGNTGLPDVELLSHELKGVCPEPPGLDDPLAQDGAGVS

For the compound `O=C(Nc1nc(-c2ccoc2)c(C(=O)C2CCOCC2)s1)c1cnc2c(c1)CCC2` [(IAA), N-[4-(3-Furyl)-5-(tetrahydropyran-4-carbonyl)thiazol-2-yl]-6,7-dihydro-5H-cyclopenta[b]pyridine-3-carboxamide], the results for the inhibition at 0.1 µM in assay [1] and in assay [2] were 9% and 98%, respectively.
As for `C=Cc1ccc(C(=O)Nc2nc(-c3ccco3)c(C(=O)C3CCOCC3)s2)cn1` [(IE), N-[4-(2-Furyl)-5-(tetrahydropyran-4-carbonyl)thiazol-2-yl]-6-vinylpyridine-3-carboxamide], the inhibition at 0.1 µM in assay [1] stood at 33%; in assay [2], 93%.
For `O=C(Cc1cccnc1)Nc1nc(-c2ccco2)c(C(=O)C2CCOCC2)s1` [(IF), N-[4-(2-Furyl)-5-(tetrahydropyran-4-carbonyl)thiazol-2-yl]-2-(pyridin-3-yl)acetamide], in that order: 50% and 107%.
For `O=C(Nc1nc(-c2ccco2)c(C(=O)C2CCOCC2)s1)c1ccc[nH]1` [(IG), N-[4-(2-Furyl)-5-(tetrahydropyran-4-carbonyl)thiazol-2-yl]-1H-pyrrole-2-carboxamide], in that order: 91% and 102%.
As for `O=C(Nc1nc(-c2ccco2)c(C(=O)C2CCOCC2)s1)c1cccc2[nH]ccc12` [(IH), N-[4-(2-Furyl)-5-(tetrahydropyran-4-carbonyl)thiazol-2-yl]-1H-indole-4-carboxamide], the inhibition at 0.1 µM in assay [1] was 67%; in assay [2], 98%.
For `O=C(Nc1nc(-c2ccco2)c(C(=O)C2CCOCC2)s1)c1ccnc(CN2CCOCC2)c1` [(II), N-[4-(2-Furyl)-5-(tetrahydropyran-4-carbonyl)thiazol-2-yl]-2-(morpholin-4-ylmethyl)pyridine-4-carboxamide], in that order: 19% and 85%.
Turning to `COCc1cc(C(=O)Nc2nc(-c3ccco3)c(C(=O)C3CCOCC3)s2)ccn1` [(IJ), N-[4-(2-Furyl)-5-(tetrahydropyran-4-carbonyl)thiazol-2-yl]-2-methoxymethylpyridine-4-carboxamide], the inhibition at 0.1 µM was found to be 21% in assay [1] and 93% in assay [2].
For `CCOCc1cc(C(=O)Nc2nc(-c3ccco3)c(C(=O)C3CCOCC3)s2)ccn1` [(IK), 2-Ethoxymethyl-N-[4-(2-furyl)-5-(tetrahydropyran-4-carbonyl)thiazol-2-yl]pyridine-4-carboxamide], in that order: 24% and 92%.
For `CC(C)OCc1cc(C(=O)Nc2nc(-c3ccco3)c(C(=O)C3CCOCC3)s2)ccn1` [(IL), N-[4-(2-Furyl)-5-(tetrahydropyran-4-carbonyl)thiazol-2-yl]-2-isopropoxymethylpyridine-4-carboxamide], in that order: 20% and 85%.
For `O=C(Nc1nc(-c2ccco2)c(C(=O)C2CCOCC2)s1)c1cnc2occc2c1` [(IM), N-[4-(2-Furyl)-5-(tetrahydropyran-4-carbonyl)thiazol-2-yl]furo[2,3-b]pyridine-5-carboxamide], in that order: 47% and 98%.
As to `O=C(Cc1ccccn1)Nc1nc(-c2ccco2)c(C(=O)C2CCOCC2)s1` [(IN), N-[4-(2-Furyl)-5-(tetrahydropyran-4-carbonyl)thiazol-2-yl]-2-(pyridin-2-yl)acetamide], the inhibition at 0.1 µM in assay [1] stood at 21%; in assay [2], 93%.
For `COc1ccc(C(=O)Nc2nc(-c3ccco3)c(C(=O)C3CCOCC3)s2)cn1` [(IO), N-[4-(2-Furyl)-5-(tetrahydropyran-4-carbonyl)thiazol-2-yl]-6-methoxypyridine-3-carboxamide], in that order: 56% and 97%.
For `O=C(Nc1nc(-c2ccco2)c(C(=O)C2CCOCC2)s1)c1cnc2ccccc2c1` [(IP), N-[4-(2-Furyl)-5-(tetrahydropyran-4-carbonyl)thiazol-2-yl]quinoline-3-carboxamide], in that order: 18% and 98%.
For `Cc1cc(C(=O)Nc2nc(-c3ccco3)c(C(=O)C3CCOCC3)s2)cnc1C` [(IQ), N-[4-(2-Furyl)-5-(tetrahydropyran-4-carbonyl)thiazol-2-yl]-5,6-dimethylpyridine-3-carboxamide], in that order: 18% and 100%.
Take `CCc1cncc(C(=O)Nc2nc(-c3ccco3)c(C(=O)C3CCOCC3)s2)c1` [(IR), 5-Ethyl-N-[4-(2-furyl)-5-(tetrahydropyran-4-carbonyl)thiazol-2-yl]pyridine-3-carboxamide]: the figures for the inhibition at 0.1 µM in assay [1] and in assay [2] were 30% and 107%, respectively.
For `O=C(Nc1nc(-c2ccco2)c(C(=O)C2CCOCC2)s1)c1cnc2c(c1)COCC2` [(IS), N-[4-(2-Furyl)-5-(tetrahydropyran-4-carbonyl)thiazol-2-yl]-7,8-dihydro-5H-pyrano[4,3-b]pyridine-3-carboxamide], in that order: 10% and 90%.
For `O=C(Nc1nc(-c2ccco2)c(C(=O)C2CCOCC2)s1)c1cnc2c(c1)CCC2` [(IT), N-[4-(2-Furyl)-5-(tetrahydropyran-4-carbonyl)thiazol-2-yl]-6,7-dihydro-5H-cyclopenta[b]pyridine-3-carboxamide], in that order: 37% and 91%.
For `O=C(Nc1nc(-c2ccco2)c(C(=O)C2CCOCC2)s1)c1cc2ccccc2[nH]1` [(IU), N-[4-(2-Furyl)-5-(tetrahydropyran-4-carbonyl)thiazol-2-yl]-1H-indole-2-carboxamide], in that order: 36% and 110%.
For `CCc1ccc(C(=O)Nc2nc(-c3ccco3)c(C(=O)C3CCOCC3)s2)cn1` [(IV), 6-Ethyl-N-[4-(2-furyl)-5-(tetrahydropyran-4-carbonyl)thiazol-2-yl]pyridine-3-carboxamide], the results for the inhibition at 0.1 µM in assay [1] and in assay [2] were 23% and 98%, respectively.
As for `CCCc1ccc(C(=O)Nc2nc(-c3ccco3)c(C(=O)C3CCOCC3)s2)cn1` [(IW), N-[4-(2-Furyl)-5-(tetrahydropyran-4-carbonyl)thiazol-2-yl]-6-propylpyridine-3-carboxamide], the inhibition at 0.1 µM in assay [1] turned out to be 23%; in assay [2], 98%.
Take `O=C(Nc1nc(-c2ccco2)c(C(=O)C2CCOCC2)s1)c1cnc2c(c1)CSCC2` [(IX), N-[4-(2-Furyl)-5-(tetrahydropyran-4-carbonyl)thiazol-2-yl]-7,8-dihydro-5H-thiopyrano[4,3-b]pyridine-3-carboxamide]: the inhibition at 0.1 µM is 18% in assay [1] and 101% in assay [2].
For `CC(=O)c1cc(C(=O)Nc2nc(-c3ccco3)c(C(=O)C3CCOCC3)s2)cnc1C` [(IY), 5-Acetyl-N-[4-(2-furyl)-5-(tetrahydropyran-4-carbonyl)thiazol-2-yl]-6-methylpyridine-3-carboxamide], in that order: 8% and 97%.
Consider `CCc1cncc(C(=O)Nc2nc(-c3ccoc3)c(C(=O)C3CCOCC3)s2)c1` [(IZ), 5-Ethyl-N-[4-(3-furyl)-5-(tetrahydropyran-4-carbonyl)thiazol-2-yl]pyridine-3-carboxamide], for which the inhibition at 0.1 µM was 21% in assay [1] and 102% in assay [2].
